In patent US20110060036A1, “Branched Multifunctional Nanoparticle Conjugates And Their Use” (EMORY UNIVERSITY, priority 2008, published 2011):

Legend:
[1] = system: MDA-MB-231 tumor; assay: Therapeutic efficacy test in MDA-MB-231 orthotopic tumor model; assay type: in vivo, athymic nude mice; conditions: for therapeutic outcome in small tumors: tumors about 30 mm^3, i.v. weekly; for therapeutic outcome in small tumors / antitumor effect in large tumors: TX equivalent 30 mg/Kg; for antitumor effect in large tumors: tumors about 120 mm^3, i.v., 4 weekly injections
Procedure: The MDA-MB-231 tumor model was used for testing the in-vivo therapeutic efficacy of these polymer-drug conjugates. MDA-MB-231 tumors were developed in the mammary fat pad of athymic nude mice as discussed above. When the average sizes of the tumor reached 100-120 or ˜30 mm^3, mice were randomly sorted into 4 groups (6 mice each group). A paclitaxel equivalent of 30 mg/kg of free drug and polymer drug conjugates were administered i.v. and the injections were performed weekly. Tumor sizes were measured in two dimensions with calipers and volume was calculated using the following formula: Tumor volume=(length×width^2)/2. The end-point size of this tumor model was set at 1,500 mm^3, 20% weight loss or severe ulceration (more than 20% of tumor areas).
Following the in-vivo blood circulation and tumor targeting tests, the anti-tumor activity of these nanoparticles was evaluated in comparison with free TX using the MDA-MB-231 orthotopic tumor model with two serials trials of tumor sizes of about 120 and 30 mm^3.

[2] = system: tumor cell cultures; conditions: cited from earlier work
[3] = room temperature (25 degrees C.); cited from earlier work

Compound: CC(=O)O[C@H]1C(=O)[C@@]2(C)[C@H]([C@H](OC(=O)c3ccccc3)[C@]3(O)C[C@H](OC(=O)[C@H](O)[C@@H](NC(=O)c4ccccc4)c4ccccc4)C(C)=C1C3(C)C)[C@]1(OC(C)=O)CO[C@@H]1C[C@@H]2O [TX, paclitaxel]
- histological analysis of tumor sections: Ki67 expression level ([1]; large tumors, TX equivalent 30 mg/Kg weekly): little difference compared to the control
- therapeutic outcome in small tumors [1]: delayed response to the treatment
- antitumor effect in large tumors [1]: little effect on tumor inhibition

Compound: calicheamicin
- IC50 for inhibition of growth of tumor cell cultures [2]: low picomolar range

Compound: PG-2′-O— succinyl-paclitaxel [GT]
- therapeutic outcome in small tumors [1]: delayed response to the treatment
- antitumor effect in large tumors [1]: significant antitumor effects

Compound: CC(C)CCC[C@@H](C)[C@H]1CC[C@H]2[C@@H]3CC=C4C[C@@H](O)CC[C@]4(C)[C@H]3CC[C@]12C [cholesterol]
- solubility in water [3]: 10 nanograms/ml

Compound: COc1cccc2c1C(=O)c1c(O)c3c(c(O)c1C2=O)C[C@@](O)(C(=O)CO)C[C@@H]3O[C@H]1C[C@H](N)[C@H](O)[C@H](C)O1 [doxorubicin]
- solubility in water [3]: 1 milligram/ml

Compound: esperamicin
- IC50 for inhibition of growth of tumor cell cultures [2]: low picomolar range

Compound: dynemicin
- IC50 for inhibition of growth of tumor cell cultures [2]: low picomolar range
